In the NIST ThermoML archive (doi:10.1016/j.jct.2004.10.005):
Numbers after ± are expanded uncertainties.

Key:
[1] = Molar enthalpy of transition or fusion

BrC12CC3CC(CC(C3)C1)C2 [1-bromotricyclo[3.3.1.1(3,7)]decane]
[1]
Settings	Molar enthalpy of transition or fusion [kJ/mol]
Crystal 1, DSC	3.97 ± 0.21
Crystal 2, Adiabatic calorimetry	7.42 ± 0.25
Crystal 2, DSC	7.51 ± 0.29
Crystal 3, Adiabatic calorimetry	1.387 ± 0.01
Crystal 4, Adiabatic calorimetry	0.00144 ± 0.0026

Settings	Triple point temperature [K]
Crystal 1, DTA	391.8 ± 0.4
Crystal 2, Adiabatic calorimetry	309.9 ± 0.1
Crystal 2, DTA	309.8 ± 0.4
Crystal 3, Adiabatic calorimetry	282.2 ± 0.1
Crystal 4, Adiabatic calorimetry	31 ± 0.1
